# Assay results reported in patent US20200121801A1, “DRUG DELIVERY CONJUGATES CONTAINING UNNATURAL AMINO ACIDS AND METHODS FOR USING” (priority 2012, published 2020).
# Experiments:
# [1] = test system: adjuvant-induced arthritis; assay: Adjuvant-induced arthritis (AIA) model
# Description: METHOD. Adjuvant-Induced Arthritis (AIA) Model. Female Lewis rats are fed a folate-deficient diet (Harlan Teklad, Indianapolis, Ind.) for 9-10 days prior to arthritis induction. The adjuvant-induced arthritis (AIA) is induced by intradermal inoculation (at the base of tail) of 0.4-0.5 mg of heat-killed Mycobacteria butyricum (BD Diagnostic Systems, Sparks, Md.) in 100 μL light mineral oil (Sigma). Ten days after arthritis induction, paw edema (degree of arthritis) in rats is assessed using a modified arthritis scoring system: 0=no arthritis; 1=swelling in one type of joint; 2=swelling in two types of joint; 3=swelling in three types of joint; 4=swelling of the entire paw. A total score for each rat is calculated by summarizing the scores for each of the four paws, giving a maximum score of 16 for each rat. On Day 10 post arthritis induction, rats with a total arthritis score of […] were removed from the study and the remaining rats are distributed evenly across the control and treatment groups (n=5 for all groups except that n=2-3 for healthy controls). All treatments are started on Day 10 unless indicated otherwise. Rat paws are also evaluated radiographically to assess and determine bone damage.
# EXAMPLE. […] Starting 9 days after induction, rats with developing AIA are distributed according to arthritis scores into three groups (n=5): (1) the untreated AIA control, (2) the EC1669 treated group, and (3) the EC1669 plus EC0923 competition group. All treatments last for 2 consecutive weeks. The animals in the AIA control group are left untreated. The animals in the EC1669 treatment group are given twice-a-week subcutaneous doses of EC1669 at a dosage of 375 nmol/kg. The animals in the EC1669 plus EC0923 group are given twice-a-week subcutaneous doses of EC1669 at a dosage of 375 nmol/kg in conjunction to EC0923 at a dosage of 187.5 μmol/kg.
# EXAMPLE. […] CellCept is a prodrug of mycophenolic acid, an immunosuppressant drug used to prevent organ rejection in transplantation. CellCept is activated in vivo and releases its active product that can inhibit T cell proliferation and interfere with leukocyte adhesion to endothelial cells. To test the combination effect of EC1669 and CellCept, rats with developing AIA are distributed according to arthritis scores into four groups (n=5): (1) the untreated AIA control, (2) the EC1669 treated group, (3) the CellCept treated group, and (4) the EC1669 and CellCept combination group. All treatments start on day 9 after AIA induction and last 2 consecutive weeks. The animals in the AIA control group are untreated. The animals in the EC1669 treatment group are given weekly subcutaneous doses of EC1669 at a dosage of 1000 nmol/kg. The animals in the CellCept treatment group are given daily oral doses of CellCept at a dosage of 30 mg/kg, 5 days per week. The animals in the EC1669 and CellCept combination treatment group are given weekly subcutaneous doses of EC1669 at a dosage of 1000 nmol/kg and daily oral doses of CellCept at a dosage of 30 mg/kg, 5 days per week.
# [2] = test system: experimental autoimmune encephalomyelitis; assay: Autoimmune encephalomyelitis (EAE) model; assay type: in vivo, rats
# Description: METHOD. Autoimmune Encephalomyelitis (EAE) Model. EAE is induced in rats by immunization against 25 μg of guinea pig myelin basic protein (MBP) formulated with CFA containing 1 mg of grounded Mycobacterium tuberculosis H37Ra. Pertussis toxin is given intraperitoneally (1 μg/rat) to enhance the organ-specific autoimmunity. Starting 8 days after induction, rats are divided into […]: (1) untreated control (n=8), (2) test compound (n=7), and (3) test compound plus competitor compound (n=7), such as EC0923 competition. All treatments start on day 8 after EAE induction. The animals in the EAE control group are left untreated. […] The clinical severity of EAE is monitored on a daily basis and graded on a scale of 0 to 5 per animal. The clinical signs of ascending paralysis of EAE rats are divided into a 0-5 scale: 0=No disease, 0.5=distal limp tail, 1=limp tail, 2=mild paraparesis; ataxia-weakened hind limbs, 3=moderate paraparesis; hind limbs paresis, 4=complete hind limb paralysis, 5=complete hind limb paralysis and incontinence (euthanasia). On day 16, the animals are euthanized and brain and spinal cords are fixed in formalin for histology.
# [3] = target: T1, folate receptors (FR) on CHO-FRβ cells (Homo sapiens, UniProt P14207); assay: Relative affinity assay (3H-folic acid competition) on CHO-FRβ cells; assay type: binding; settings: 1 h at 37° C.
# T1 construct: expressed in transfected cells; host or cells: CHO cells (CHO-FRβ)
# T1 sequence (P14207 17-230): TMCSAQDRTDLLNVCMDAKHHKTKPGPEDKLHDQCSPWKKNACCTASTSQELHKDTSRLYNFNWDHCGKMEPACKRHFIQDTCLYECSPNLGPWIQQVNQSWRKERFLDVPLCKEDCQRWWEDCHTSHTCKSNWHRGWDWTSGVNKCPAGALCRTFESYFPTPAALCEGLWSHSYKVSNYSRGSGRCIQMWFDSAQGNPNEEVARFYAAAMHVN
# [4] = 375 nmol/kg s.c. twice-a-week, 2 weeks
structure (smiles),measurement,setting,value
N=c1[nH]c(N)nc2ncc(CNc3ccc(C(=O)N[C@@H](CCC(=O)NNC(=O)OCCSSC[C@@H](NC(=O)[C@H](CCC(=O)NC[C@H](O)[C@@H](O)[C@H](O)[C@H](O)CO)NC(=O)[C@@H](CCC(=O)O)NC(=O)[C@H](CCC(=O)NC[C@H](O)[C@@H](O)[C@H](O)[C@H](O)CO)NC(=O)[C@@H](CCC(=O)O)NC(=O)[C@H](CCC(=O)NC[C@H](O)[C@@H](O)[C@H](O)[C@H](O)CO)NC(=O)CC[C@H](NC(=O)c4ccc(NCc5cnc6nc(N)[nH]c(=O)c6n5)cc4)C(=O)O)C(=O)O)C(=O)O)cc3)nc12 [EC1669],reduction in paw swelling,"[1]; 250 nmol/kg, biw",64%
same,whole animal toxicity (body weight),[1]; 375 nmol/kg,does not exhibit whole animal toxicity
same,alleviation of bone damage compared to control,[1]; [4],~80%
same,alleviation of paw swelling compared to control,[1]; [4],~80%
same,reduction in paw swelling,"[1]; 500 nmol/kg, biw",81%
same,reduction in paw swelling,"[1]; 1000 nmol/kg, siw",44%
same,anti-arthritic activity with folate competitor EC0923,[1]; EC0923 187.5 μmol/kg co-dosed,competable (blocked)
same,therapeutic effect with folate receptor competitor EC0923,[2]; excess EC0923,blocked
same,efficacy against EAE (clinical score),[2]; s.c. every other day from day 8,effectively suppresses the neurological symptoms
same,treatment-related weight loss,[2]; when dosed alone,not observed
same,"relative affinity (normalized against folic acid, set to 1)",[3],0.13
